Results: PubChem BioAssay AID330 (DTP/NCI, 2004)
“And” between values parts separate entries of the source, which are not always exact repeats. Equal entries are not always repeated. Inconclusive results and toxic doses are left out. The calls were made as follows: active = survival T/C of 150% or more; inactive = T/C below 125% in these data.

Test system: P388 leukemia ip, CD2F1 mice, survival T/C
Assay: NCI In Vivo Anticancer Drug Screen. Data for tumor model P388 Leukemia (intraperitoneal) in CD2F1 (CDF1) mice
Details: endpoint: median survival time, higher = longer survival
Procedure, shortened: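 Mice carrying the transplanted tumor received test compound or vehicle. Survival was recorded in each group, and the value is the treated-group measurement divided by that of the vehicle-treated control group.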

Measured: T/C

O=C(NC12CC3CC(CC(C3)C1)C2)OCCN1CCN(CCCN2c3ccccc3Sc3ccc(C(F)(F)F)cc32)CC1
inactive: dose: 25.0 mg/kg/injection, schedule: Q04DX002 (ip), vehicle: saline with Tween-80 97 % of control | dose: 50.0 mg/kg/injection, schedule: Q04DX002 (ip), vehicle: saline with Tween-80 101 % of control | dose: 100.0 mg/kg/injection, schedule: Q04DX002 (ip), vehicle: saline with Tween-80 104 % of control and 113 % of control

CCN1c2ccccc2CC(CCN(C)Cc2ccccc2)(C(N)=O)c2ccccc21 (stereo not drawn)
inactive: dose: 12.5 mg/kg/injection, schedule: Q01DX009 (ip), vehicle: saline with Tween-80 92 % of control | dose: 25.0 mg/kg/injection, schedule: Q01DX009 (ip), vehicle: saline with Tween-80 99 % of control | dose: 50.0 mg/kg/injection, schedule: Q01DX009 (ip), vehicle: saline with Tween-80 100 % of control

Cc1cccc(C2=NCCN2)c1C
inactive: dose: 5.0 mg/kg/injection, schedule: Q04DX003 (ip), vehicle: saline with Tween-80 100 % of control | dose: 10.0 mg/kg/injection, schedule: Q04DX003 (ip), vehicle: saline with Tween-80 100 % of control | dose: 20.0 mg/kg/injection, schedule: Q04DX003 (ip), vehicle: saline with Tween-80 100 % of control

Nc1[nH]c(=O)ncc1-c1ccccc1Cl
inactive: dose: 60.0 mg/kg/injection, schedule: Q01DX005 (ip), vehicle: saline with Tween-80 98 % of control | dose: 120.0 mg/kg/injection, schedule: Q01DX005 (ip), vehicle: saline with Tween-80 104 % of control | dose: 240.0 mg/kg/injection, schedule: Q01DX005 (ip), vehicle: saline with Tween-80 112 % of control

C=C1C(=O)OC2C(OC(=O)C(C)C)CCCC12 (stereo not drawn)
inactive: dose: 60.0 mg/kg/injection, schedule: Q01DX005 (ip), vehicle: Klucel (hydroxypropylcellulose) (HPC) 105 % of control | dose: 120.0 mg/kg/injection, schedule: Q01DX005 (ip), vehicle: Klucel (hydroxypropylcellulose) (HPC) 100 % of control | dose: 240.0 mg/kg/injection, schedule: Q01DX005 (ip), vehicle: Klucel (hydroxypropylcellulose) (HPC) 102 % of control

COc1cc(CC(=O)NCCc2ccsc2)c(CO)cc1OCc1ccccc1
inactive: dose: 100.0 mg/kg/injection, schedule: Q01DX001 (ip), vehicle: Klucel (hydroxypropylcellulose) (HPC) 99 % of control | dose: 200.0 mg/kg/injection, schedule: Q01DX001 (ip), vehicle: Klucel (hydroxypropylcellulose) (HPC) 101 % of control | dose: 400.0 mg/kg/injection, schedule: Q01DX001 (ip), vehicle: Klucel (hydroxypropylcellulose) (HPC) 101 % of control
